Experimental data: patent US8048923B2, “Treatment of polyglutamine disorders caused by expanding genomic CAG nucleotides” (Odessa Pharma, priority 2003, dated 2011)

Columns and labels:
glutamine synthetase = glutamine synthetase (Homo sapiens, UniProt P15104); details: cited from earlier work
[1] = in vivo; cited from earlier work
Huntington's disease = details: patients, cited from earlier work; for slowing of progression of Huntington's disease: large-scale clinical trial
[2] = tested on: mice with the gene mutation for Huntington's disease (HD); details: cited from earlier work
[3] = tested on: Differentiated inducible PC12 cells; assay: L-glutamine add-back to MSO treated PC12 culture; assay type: cell-based
Experimental: The cells are grown overnight and aggregation is calculated. Inhibition of aggregation proceeds in a concentration-dependent manner.
In contrast, the addition of L-GLN has no effect on the growth of cells not treated with MSO or cultures treated with subinhibitory concentrations of MSO.

[4] = tested on: Differentiated inducible PC12 cells; details: MSO 1-100 μM, low glutamine medium, overnight, fluorescent microscopy counts
Experimental: Cells (1×10^6) are plated in 10-cm plates using tissue culture medium low in glutamine to ensure that most of the glutamine in the cells is the product of de novo synthesis by cellular glutamine synthetase. […] MSO is added directly to the cell-culture media at final concentrations of 1-100 μM. The cells are grown overnight and aggregation is calculated. […] Visual counts of aggregates are performed by using fluorescent microscopy.

[5] = tested on: Drosophila transgenic polyQ line P{UAS-Q48myc}^42; details: Q48 flies fed MSO; Q48 flies without MSO need an average of 26 sec
Experimental: Flies are mated at 25° C. as described in Nature 413, 739-743. Eggs are collected and transferred into vials at 29° C. containing standard food supplemented with MSO, and adults are transferred to vials containing fresh food every 3 days after eclosion.
A second phenotype associated with expanded polyQ expression is a decrease in motor function. This is assayed by using an “escape” or climbing assay as described in Exp. Gerontol.

[6] = tested on: brain levels of glutamine; details: MSO administered to normal animals; reduced from 5.6; cited from earlier work

Sequence of glutamine synthetase (P15104 2-373 limits assumed, species assumed): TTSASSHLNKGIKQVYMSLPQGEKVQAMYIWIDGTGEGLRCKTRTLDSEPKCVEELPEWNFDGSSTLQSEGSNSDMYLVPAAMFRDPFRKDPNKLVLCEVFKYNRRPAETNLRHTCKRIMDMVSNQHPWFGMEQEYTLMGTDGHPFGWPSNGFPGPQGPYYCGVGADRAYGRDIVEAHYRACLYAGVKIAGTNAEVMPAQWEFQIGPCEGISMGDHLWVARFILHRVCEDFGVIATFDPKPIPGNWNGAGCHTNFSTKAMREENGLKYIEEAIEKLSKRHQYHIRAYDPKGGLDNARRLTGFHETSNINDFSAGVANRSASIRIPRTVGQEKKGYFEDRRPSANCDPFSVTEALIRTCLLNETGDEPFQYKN

## CP(=O)(O)CCC(N)C(=O)O [Glufosinate, ammonium-D-L-homoalanine-4-yl(methyl)-phosphinate]
Glutamine synthetase
  type of inhibition of glutamine synthetase: catalytic inhibitor
[1]
  crossing of the blood brain barrier: does not cross the blood brain barrier

## COC1=C(OC)C(=O)C(C/C=C(\C)CC/C=C(\C)CC/C=C(\C)CC/C=C(\C)CC/C=C(\C)CC/C=C(\C)CC/C=C(\C)CC/C=C(\C)CC/C=C(\C)CCC=C(C)C)=C(C)C1=O [Coenzyme Q10]
Huntington's disease
  slowing of progression of Huntington's disease: neither drug resulted in any significant improvement
Huntington's disease; one year of treatment, overall results inconclusive
  disease progression after one year of treatment: seemed to progress more slowly

## NCCSSCCN [cystamine]
[2]; HD mutation mice
  tremors and survival: alleviate tremors and prolong life
[2]; mouse, in vivo
  levels of neuroprotective proteins: increase the levels of certain neuroprotective proteins

## NC(=O)CC[C@H](N)C(=O)O [L-glutamine]
[3]; MSO treated culture
  toxic protein synthesis and aggregation after addition of L-glutamine: increased toxic protein synthesis and aggregation
[3]; cells not treated with MSO or treated with subinhibitory concentrations of MSO
  growth of cells after addition of L-GLN: no effect

## CC(Cc1ccccc1)(NC(=O)CN)c1ccccc1 (stereo not shown) [Remacemide]
Huntington's disease
  slowing of progression of Huntington's disease: neither drug resulted in any significant improvement

## CS(=N)(=O)CC[C@H](N)C(=O)O (stereo partly drawn) [MSO, L-methionine S-sulfoximine]
[4]
  visible aggregate production (aggregation): inhibit aggregation
[5]
  time to climb a defined distance up a vial (motor function): require less time to climb the same distance
Glutamine synthetase
  type of inhibition of glutamine synthetase: irreversible inhibitor
[6]
  brain levels of glutamine: 1.8 mmol/kg brain
